Seven compounds from patent publication US4721775A, “Effective peptides related to the luteinizing hormone releasing hormone from L-amino acids” (Board of Regents, The University of Texas System, priority 1985, dated 1988) can be followed below.

Non-standard residues stand in square brackets, D forms with d. Residues, ends and D or L forms follow the SMILES beside them. pGlu = O=C1CC[C@@H](C(=O)O)N1

Assay type in all cases: in vivo
Assay [1] concerns release of LH. The assay can be described thus: Release of LH in rats after sc injection. The conditions noted are these: for LH % change: LHRH = 100. The text has this: (§1) The data on the release of LH and FSH in rats by modifications of LHRH with one structural change are in Table II.
(§2) Exclusive of the salmon-LHRH, only one of the six decapeptides with two structural changes had significant activity.

Assay [2] relates to release of FSH. The assay can be described thus: Release of FSH in rats after sc injection. The conditions noted are these: for FSH % change: LHRH = 100.
Excerpt: as §1, §2

For assay [3], the system named is release of FSH. Nature of the assay: Release of FSH in rats after sc injection. The conditions noted are these: dose and time as stated in the source.
Setting [4] is: 15 min. after sc injection, 100 ng.
Where [5] appears, read: 15 min. after sc injection, 1000 ng.
The mark [6] stands for this setting: 60 min. after sc injection, 300 ng.
Setting [7] is: 60 min. after sc injection, 3000 ng.
Setting [8] is: release 15 min. after sc injection, dosage of peptide 100 ng.
Setting [9] is: release 15 min. after sc injection, dosage of peptide 1000 ng.
The mark [10] stands for this setting: release 60 min. after sc injection, dosage of peptide 300 ng.
Setting [11] is: release 60 min. after sc injection, dosage of peptide 3000 ng.
The mark [12] stands for this setting: 30 min. after sc injection, 1000 ng.
[13] abbreviates: release 30 min. after sc injection, dosage of peptide 50 ng.
The mark [14] stands for this setting: release 30 min. after sc injection, dosage of peptide 1000 ng.
Setting [15] is: sc injection, dose and time as stated in the source.

Take `CC(C)C[C@H](NC(=O)CNC(=O)[C@H](Cc1c[nH]cn1)NC(=O)[C@H](CO)NC(=O)[C@H](Cc1c[nH]c2ccccc12)NC(=O)[C@H](Cc1c[nH]cn1)NC(=O)[C@@H]1CCC(=O)N1)C(=O)N[C@@H](CCC(N)=O)C(=O)N1CCC[C@H]1C(=O)NCC(N)=O` [[His^5 Gln^8]--LHRH, p-Glu His Trp Ser His Gly Leu Gln Pro Gly-NH2] ([pGlu]HWSHGLQPG-NH2): the LH % change in assay [1] (setting [4]) was found to be 29%; in assay [1] (setting [5]) it was 47%; in assay [1] (setting [6]), 30%; in assay [1] (setting [7]), 8.3%. Also, the LH in assay [1] (setting [8]) was 7 ng/mL; in assay [1] (setting [9]) it was 27 ng/mL; in assay [1] (setting [10]), 3.3 ng/mL; in assay [1] (setting [11]), 6.8 ng/mL. Further, the FSH % change in assay [2] (setting [6]) is recorded as 48%; in assay [2] (setting [7]), 39%. The FSH in assay [2] (setting [8]) was 343 ng/mL; in assay [2] (setting [9]) it was 416 ng/mL; in assay [2] (setting [10]) it was 283 ng/mL; in assay [2] (setting [11]) it was 456 ng/mL.
`CC(C)C[C@H](NC(=O)CNC(=O)[C@H](Cc1c[nH]cn1)NC(=O)[C@H](CO)NC(=O)[C@H](Cc1c[nH]c2ccccc12)NC(=O)[C@H](Cc1c[nH]cn1)NC(=O)[C@@H]1CCC(=O)N1)C(=O)N[C@@H](CC(C)C)C(=O)N1CCC[C@H]1C(=O)NCC(N)=O` [[His^5 Leu^8]--LHRH, p-Glu His Trp Ser His Gly Leu Leu Pro Gly-NH2] ([pGlu]HWSHGLLPG-NH2): the LH % change in assay [1] (setting [4]) worked out at 0.8%; in assay [1] (setting [5]), 5%; in assay [1] (setting [6]) it was 20%; in assay [1] (setting [7]), 2.2%. Further, the LH in assay [1] (setting [8]) was determined as 0.2 ng/mL; in assay [1] (setting [9]), 3.3 ng/mL; in assay [1] (setting [10]), 2.2 ng/mL; in assay [1] (setting [11]) it was 1.8 ng/mL. For the same compound, the FSH % change in assay [2] (setting [4]) stood at 43%; in assay [2] (setting [5]), 57%; in assay [2] (setting [6]), 44%; in assay [2] (setting [7]) it was 18%. The FSH in assay [2] (setting [8]) turned out to be 202 ng/mL; in assay [2] (setting [9]) it was 276 ng/mL; in assay [2] (setting [10]), 261 ng/mL; in assay [2] (setting [11]), 205 ng/mL.
Consider `CC(C)C[C@H](NC(=O)[C@H](Cc1c[nH]c2ccccc12)NC(=O)CNC(=O)[C@H](Cc1c[nH]cn1)NC(=O)[C@H](CO)NC(=O)[C@H](Cc1c[nH]c2ccccc12)NC(=O)[C@H](Cc1c[nH]cn1)NC(=O)[C@@H]1CCC(=O)N1)C(=O)N1CCC[C@H]1C(=O)NCC(N)=O` [[His^5 Trp^7 Leu^8]--LHRH, p-Glu His Trp Ser His Gly Trp Leu Pro Gly-NH2] ([pGlu]HWSHGWLPG-NH2), for which the LH % change is on record as 38% in assay [1] (setting [4]), 40% in assay [1] (setting [5]), 23% in assay [1] (setting [6]) and 6% in assay [1] (setting [7]). For the same compound, the “LH released, % of the LH released by LHRH” value in assay [1] (levels of 100 and 1000 ng) is reported as “up to 50%”. Further, the LH came to 9 ng/mL in assay [1] (setting [8]), 23 ng/mL in assay [1] (setting [9]), 2.5 ng/mL in assay [1] (setting [10]) and 5 ng/mL in assay [1] (setting [11]). Further, the FSH % change in assay [2] (setting [6]) stood at 62%; in assay [2] (setting [7]), 32%. Further, the FSH in assay [2] (setting [8]) was determined as 383 ng/mL; in assay [2] (setting [9]) it was 445 ng/mL; in assay [2] (setting [10]), 369 ng/mL; in assay [2] (setting [11]), 376 ng/mL. In addition, the figures for the “release of FSH compared with LHRH” value in assay [3] and in assay [3] (Trp^7 Leu^8 ]-LHRH) were “equivalent in activity to LHRH” and “released as much FSH as LHRH”, respectively.
Turning to `CC(C)C[C@H](NC(=O)CNC(=O)[C@H](Cc1c[nH]cn1)NC(=O)[C@H](CO)NC(=O)[C@H](Cc1c[nH]c2ccccc12)NC(=O)[C@H](Cc1c[nH]cn1)NC(=O)[C@@H]1CCC(=O)N1)C(=O)N[C@@H](Cc1ccc(O)cc1)C(=O)N1CCC[C@H]1C(=O)NCC(N)=O` [[His^5 Tyr^8]--LHRH, p-Glu His Trp Ser His Gly Leu Tyr Pro Gly-NH2] ([pGlu]HWSHGLYPG-NH2), the LH % change is on record as 3% in assay [1] (30 min. after sc injection, 50 ng); 4% in assay [1] (setting [12]); 3.4% in assay [1] (setting [7]). Further, the LH is 0.5 ng/mL in assay [1] (setting [13]), 5.0 ng/mL in assay [1] (setting [14]) and 2.8 ng/mL in assay [1] (setting [11]). Further, the figures for the FSH % change in assay [2] (setting [12]) and in assay [2] (setting [7]) were 3% and 42%, respectively. Further, the FSH turned out to be 235 ng/mL in assay [2] (setting [13]), 534 ng/mL in assay [2] (setting [14]) and 495 ng/mL in assay [2] (setting [11]).
Regarding `NC(=O)CC[C@H](NC(=O)[C@H](Cc1c[nH]c2ccccc12)NC(=O)CNC(=O)[C@H](Cc1ccc(O)cc1)NC(=O)[C@H](CO)NC(=O)[C@H](Cc1c[nH]c2ccccc12)NC(=O)[C@H](Cc1c[nH]cn1)NC(=O)[C@@H]1CCC(=O)N1)C(=O)N1CCC[C@H]1C(=O)NCC(N)=O` [[Trp^7 Gln^8]--LHRH, p-Glu His Trp Ser Tyr Gly Trp Gln Pro Gly-NH2] ([pGlu]HWSYGWQPG-NH2), the LH % change in assay [1] (setting [4]) stood at 29%; in assay [1] (setting [5]) it was 60%; in assay [1] (setting [6]), 29%; in assay [1] (setting [7]), 9.1%. Besides, the LH in assay [1] (setting [8]) is 7 ng/mL; in assay [1] (setting [9]) it was 34 ng/mL; in assay [1] (setting [10]), 3.2 ng/mL; in assay [1] (setting [11]), 7.5 ng/mL. In addition, the figures for the FSH % change in assay [2] (setting [6]) and in assay [2] (setting [7]) were 58% and 40%, respectively. For the same compound, the FSH in assay [2] (setting [8]) amounted to 421 ng/mL; in assay [2] (setting [9]) it was 502 ng/mL; in assay [2] (setting [10]) it was 345 ng/mL; in assay [2] (setting [11]) it was 474 ng/mL.
For `NC(=O)CNC(=O)[C@@H]1CCCN1C(=O)[C@H](Cc1ccc(O)cc1)NC(=O)[C@H](Cc1c[nH]c2ccccc12)NC(=O)CNC(=O)[C@H](Cc1ccc(O)cc1)NC(=O)[C@H](CO)NC(=O)[C@H](Cc1c[nH]c2ccccc12)NC(=O)[C@H](Cc1c[nH]cn1)NC(=O)[C@@H]1CCC(=O)N1` [[Trp^7 Tyr^8]--LHRH, p-Glu His Trp Ser Tyr Gly Trp Tyr Pro Gly-NH2] ([pGlu]HWSYGWYPG-NH2), the LH % change in assay [1] (setting [6]) is given as 25%; in assay [1] (setting [7]), 4.6%. The LH in assay [1] (setting [10]) came out at 2.8 ng/mL; in assay [1] (setting [11]), 3.8 ng/mL. Besides, the figures for the FSH % change in assay [2] (setting [6]) and in assay [2] (setting [7]) were 35% and 30%, respectively. The FSH in assay [2] (setting [10]) came to 209 ng/mL; in assay [2] (setting [11]) it was 352 ng/mL.
In the case of `CC(C)C[C@H](NC(=O)CNC(=O)[C@H](Cc1ccc(O)cc1)NC(=O)[C@H](CO)NC(=O)[C@H](Cc1c[nH]c2ccccc12)NC(=O)[C@H](Cc1c[nH]cn1)NC(=O)[C@@H]1CCC(=O)N1)C(=O)N[C@@H](Cc1ccc(O)cc1)C(=O)N1CCC[C@H]1C(=O)NCC(N)=O` [[Tyr^8]--LHRH, p-Glu His Trp Ser Tyr Gly Leu Tyr Pro Gly-NH2], the LH % change in assay [1] (setting [6]) is on record as 23%; in assay [1] (setting [7]), 3%. For the same compound, the values for the LH in assay [1] (setting [10]) and in assay [1] (setting [11]) were 2.5 ng/mL and 2.7 ng/mL, respectively. The “release of LH compared with LHRH” value in assay [1] (setting [15]) is recorded as “relatively low activities”. The figures for the FSH % change in assay [2] (setting [6]) and in assay [2] (setting [7]) were 48% and 38%, respectively. The FSH in assay [2] (setting [10]) worked out at 285 ng/mL; in assay [2] (setting [11]), 449 ng/mL. The “release of FSH compared with LHRH” value in assay [2] (setting [15]) is “relatively low activities”.
